From US20230357233A1, “HETEROARYL COMPOUNDS, PREPARATION METHODS AND USES THEREOF” (INVENTISBIO CO., LTD., priority 2020, published 2023)

Legend:
[1] = target: Ba/F3_KRAS^G12D cells (Homo sapiens, UniProt P01116, G12D, cells depend on it); assay: Ba/F3 KRAS^G12D cell proliferation assay (cell-titer Glo); assay type: cell-based; conditions: cell growth inhibition, treated with the compounds for 3 days, read-out: BaF3_KRAS^G12D IC50
[2] = target: recombinant human KRAS^G12D protein (Homo sapiens, UniProt P01116, G12D); assay: Temperature-dependent Fluorescence (TdF) KRAS^G12D protein binding assay; conditions: 6 μM KRAS^G12D Protein, 10 μM compound, Sypro Orange; Kd calculated from fluorescent shift
recombinant human KRAS^G12D protein, sequence (P01116 1-188 isoform P01116-2 G12D): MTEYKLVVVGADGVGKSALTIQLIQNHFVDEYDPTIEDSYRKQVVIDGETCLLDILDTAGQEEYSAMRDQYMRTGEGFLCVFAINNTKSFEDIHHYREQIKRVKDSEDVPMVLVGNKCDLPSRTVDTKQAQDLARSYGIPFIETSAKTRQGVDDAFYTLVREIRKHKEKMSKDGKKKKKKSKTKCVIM
How it was run: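 Sypro Orange thermal-shift assay, heating from 30 to 95 °C with readings every 0.4 °C (ex 470/em 570 nm). Binding is gauged as ΔTm with versus without compound. Kd is calculated from the degree of the unfolding-temperature shift.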

Ba/F3_KRAS^G12D cells, sequence (P01116 whole entry G12D): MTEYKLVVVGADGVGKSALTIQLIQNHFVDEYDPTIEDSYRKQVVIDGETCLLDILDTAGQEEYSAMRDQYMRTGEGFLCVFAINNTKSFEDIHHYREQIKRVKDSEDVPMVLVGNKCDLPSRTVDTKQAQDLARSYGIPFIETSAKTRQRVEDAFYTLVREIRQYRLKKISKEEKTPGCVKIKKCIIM

Row | Compound | GI50 [1] [nM] | Kd [2] [nM]
1 | O=c1cc2c(N3CC4CCC(C3)N4)nc(OCC34CCCN3CCC4)nc2cn1-c1cc(O)cc2cccc(Cl)c12 [Compound 111] | > 5000 | > 5000
2 | Oc1cc(-c2ncc3c(N4CC5CCC(C4)N5)nc(OC[C@@]45CCCN4C[C@H](F)C5)nc3c2F)c2c(Cl)cccc2c1 [Compound 112] | < 500 | ≤ 500
3 | CCc1cccc2cc(O)cc(-c3nc(Cl)c4c(N5CC6CCC(C5)N6)nc(OC[C@@]56CCCN5C[C@H](F)C6)nc4c3F)c12 [Compound 113] | < 500 | ≤ 500
4 | Oc1cc(-c2nc(Cl)c3c(N4CC5CCC(C4)N5)nc(OC[C@@]45CCCN4C[C@H](F)C5)nc3c2F)c2c(Cl)cccc2c1 [Compound 114] | < 500 | ≤ 500
5 | Cc1nc(-c2cc(O)cc3cccc(C#N)c23)c(F)c2nc(OC[C@@]34CCCN3C[C@H](F)C4)nc(N3CC4CCC(C3)N4)c12 [Compound 115] | > 5000 | ≤ 500
6 | Cc1nc(-c2cc(C(F)F)cc3cccc(Cl)c23)c(F)c2nc(OC[C@@]34CCCN3C[C@H](F)C4)nc(N3CC4CCC(C3)N4)c12 [Compound 116] | 500 to 5000 | > 5000
7 | CCc1cccc2cc(O)cc(-c3nc(C)c4c(N5CC6CCC(C5)N6)nc(OC[C@@]56CCCN5C[C@H](F)C6)nc4c3C)c12 [Compound 117] | < 500 | ≤ 500
8 | CCc1cccc2cc(O)cc(-c3nc(CC)c4c(N5CC6CCC(C5)N6)nc(OC[C@@]56CCCN5C[C@H](F)C6)nc4c3F)c12 [Compound 118] | < 500 | ≤ 500
9 | Cc1nc(-c2cc(O)cc3cccc(CCC#N)c23)c(F)c2nc(OC[C@@]34CCCN3C[C@H](F)C4)nc(N3CC4CCC(C3)N4)c12 [Compound 119] | > 5000 | 500 to 5000
10 | Oc1cc(-c2nc(Cl)c3c(N4CC5CCC(C4)N5)nc(OC[C@@]45CCCN4C[C@H](F)C5)nc3c2Cl)c2c(Cl)cccc2c1 [Compound 120] | < 500 | ≤ 500
11 | CCc1cccc2cc(O)cc(-c3cc4nc(OC[C@@]56CCCN5C[C@H](F)C6)nc(N5CC6CCC(C5)N6)c4c(C)n3)c12 [Compound 121] | 500 to 5000 | ≤ 500
12 | CCc1cccc2cc(O)cc(-c3nc(C)c4c(N5CC6CCC(C5)N6)nc(OC[C@@]56CCCN5C[C@H](F)C6)nc4c3C3CC3)c12 [Compound 122] | 500 to 5000 | > 5000
13 | Cc1nc(-c2cccc3cccc(CCC#N)c23)c(F)c2nc(OC[C@@]34CCCN3C[C@H](F)C4)nc(N3CC4CCC(C3)N4)c12 [Compound 123] | 500 to 5000 | > 5000
14 | CCc1cccc2c(F)c(O)cc(-c3nc(C)c4c(N5CC6CCC(C5)N6)nc(OC[C@@]56CCCN5C[C@H](F)C6)nc4c3F)c12 [Compound 124] | < 500 | ≤ 500
15 | CCc1cccc2cc(O)cc(-c3nc(OC)c4c(N5CC6CCC(C5)N6)nc(OC[C@@]56CCCN5C[C@H](F)C6)nc4c3F)c12 [Compound 125] | < 500 | ≤ 500
16 | Cc1nc(-c2cc(O)cc3ccc(F)c(Cl)c23)c(F)c2nc(OC[C@@]34CCCN3C[C@H](F)C4)nc(N3CC4CCC(C3)N4)c12 [Compound 126] | < 500 | ≤ 500
17 | C#Cc1c(F)ccc2cc(O)cc(-c3nc(C)c4c(N5CC6CCC(C5)N6)nc(OC[C@@]56CCCN5C[C@H](F)C6)nc4c3F)c12 [Compound 128] | < 500 | ≤ 500
18 | Cc1nc(-c2cc(O)cc3cccc(Cl)c23)c(Cl)c2nc(OC[C@@]34CCCN3C[C@H](F)C4)nc(N3CC4CCC(C3)N4)c12 [Compound 130] | < 500 | ≤ 500
19 | C#Cc1c(F)ccc2cc(O)cc(-c3cc4nc(OC[C@@]56CCCN5C[C@H](F)C6)nc(N5CC6CCC(C5)N6)c4c(C)n3)c12 [Compound 131] | < 500 | ≤ 500
20 | C#Cc1c(F)ccc2cc(O)cc(-c3nc(Cl)c4c(N5CC6CCC(C5)N6)nc(OC[C@@]56CCCN5C[C@H](F)C6)nc4c3F)c12 [Compound 132] | < 500 | ≤ 500

Row | Compound | GI50 [1] [nM] | Kd [2] [nM]
21 | CCc1cccc2cc(O)cc(-c3nc(O)c4c(N5CC6CCC(C5)N6)nc(OC[C@@]56CCCN5C[C@H](F)C6)nc4c3F)c12 [Compound 133] | 500 to 5000 | ≤ 500
22 | C#Cc1c(F)ccc2cc(O)cc(-c3nc(C)c4c(N5CC6CCC(C5)N6)nc(OC[C@@]56CCCN5C[C@H](F)C6)nc4c3Cl)c12 [Compound 134] | < 500 | ≤ 500
23 | C#Cc1c(F)ccc2cc(O)cc(-c3nc(OC)c4c(N5CC6CCC(C5)N6)nc(OC[C@@]56CCCN5C[C@H](F)C6)nc4c3F)c12 [Compound 135] | < 500 | ≤ 500
24 | CCc1cccc2cc(O)cc(-c3nc(C(F)F)c4c(N5CC6CCC(C5)N6)nc(OC[C@@]56CCCN5C[C@H](F)C6)nc4c3F)c12 [Compound 136] | < 500 | ≤ 500
25 | CCc1c(F)ccc2cc(O)cc(-c3nc(C)c4c(N5CC6CCC(C5)N6)nc(OC[C@@]56CCCN5C[C@H](F)C6)nc4c3F)c12 [Compound 137] | < 500 | ≤ 500
26 | CCc1c(F)ccc2cc(O)cc(-c3nc(Cl)c4c(N5CC6CCC(C5)N6)nc(OC[C@@]56CCCN5C[C@H](F)C6)nc4c3F)c12 [Compound 138] | < 500 | ≤ 500
27 | CCc1c(F)ccc2cc(O)cc(-c3nc(OC)c4c(N5CC6CCC(C5)N6)nc(OC[C@@]56CCCN5C[C@H](F)C6)nc4c3F)c12 [Compound 139] | < 500 | ≤ 500
28 | C#Cc1c(F)ccc2cc(O)cc(-c3nc(OCC)c4c(N5CC6CCC(C5)N6)nc(OC[C@@]56CCCN5C[C@H](F)C6)nc4c3F)c12 [Compound 141] | < 500 | ≤ 500
29 | COc1c(F)ccc2cc(O)cc(-c3nc(OC)c4c(N5CC6CCC(C5)N6)nc(OC[C@@]56CCCN5C[C@H](F)C6)nc4c3F)c12 [Compound 147] | < 500 | ≤ 500
30 | CCOc1c(F)ccc2cc(O)cc(-c3nc(OC)c4c(N5CC6CCC(C5)N6)nc(OC[C@@]56CCCN5C[C@H](F)C6)nc4c3F)c12 [Compound 148] | < 500 | ≤ 500
31 | C#Cc1c(F)ccc2cc(O)cc(-c3nc(Cl)c4c(N5CC6CCC(C5)N6)nc(OC[C@@H]5CCCN5C)nc4c3F)c12 [Compound 159] | < 500 | ≤ 500
32 | C#Cc1c(F)ccc2cc(O)cc(-c3nc(OC)c4c(N5CC6CCC(C5)N6)nc(OC[C@@H]5CCCN5C)nc4c3F)c12 [Compound 160] | < 500 | ≤ 500
33 | C#Cc1c(F)ccc2cc(N)cc(-c3nc(OC)c4c(N5CC6CCC(C5)N6)nc(OC[C@@]56CCCN5C[C@H](F)C6)nc4c3F)c12 [Compound 163] | < 500 | ≤ 500
34 | C#Cc1c(F)ccc2cc(O)cc(-c3nc(C(F)F)c4c(N5CC6CCC(C5)N6)nc(OC[C@@]56CCCN5C[C@H](F)C6)nc4c3F)c12 [Compound 165] | < 500 | ≤ 500
35 | CCc1c(F)ccc2cc(O)cc(-c3nc(C(F)F)c4c(N5CC6CCC(C5)N6)nc(OC[C@@]56CCCN5C[C@H](F)C6)nc4c3F)c12 [Compound 166] | < 500 | ≤ 500
36 | C#Cc1c(F)ccc2cc(O)cc(-c3nc(OC(C)C)c4c(N5CC6CCC(C5)N6)nc(OC[C@@]56CCCN5C[C@H](F)C6)nc4c3F)c12 [Compound 171] | < 500 | ≤ 500
37 | CCOc1nc(-c2cc(O)cc3ccc(F)c(Cl)c23)c(F)c2nc(OC[C@@]34CCCN3C[C@H](F)C4)nc(N3CC4CCC(C3)N4)c12 [Compound 173] | < 500 | ≤ 500
38 | C#Cc1c(F)ccc2cc(O)cc(-c3nc(OC)c4c(N5CC6CCC(C5)N6)nc(OC[C@]56CCCN5[C@@H](COC(=O)N(C)C)CC6)nc4c3F)c12 [Compound 176] | < 500 | ≤ 500
39 | C#Cc1c(F)ccc2cc(O)cc(-c3nc(OC(C)C)c4c(N5CC6CCC(C5)N6)nc(OC[C@@H]5CCCN5C)nc4c3F)c12 [Compound 195] | < 500 | ≤ 500
40 | C#Cc1c(F)ccc2cc(O)cc(-c3nc(OC(C)C)c4c(N5CC6CCC(C5)N6)nc(OC[C@@H]5C[C@@H](F)CN5C)nc4c3F)c12 [Compound 197] | < 500 | ≤ 500
